Our source for the pest or weed control values is US20110086759A1, “CHEMICAL COMPOUNDS” (SYNGENTA CROP PROTECTION, INC., priority 2007, published 2011).

Each structure is given as a SMILES string.

Common to all, as to assay type: in vivo
Test [1] deals with Amaranthus retoflexus (AMARE). Kind of test: Post-emergence biological efficacy, glasshouse pot test. The note with it: Amaranthus retroflexus, 312 h; Rate 1,000 g/ha; post-emergence spray; evaluated after 13 days (100=total damage to plant; 0=no damage to plant); read-out: Percentage damage caused to weed species, post-emergence, AMARE. In short, it runs like this: (§1)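 Pot-grown weeds were sprayed 8 days after sowing with test compound in acetone/water (50:50) with 0.5% Tween 20 at 1000 or 250 g/ha. Glasshouse at 24/16° C day/night, 14 h light, 65% humidity. Damage scored 0-100 (100 = total damage) after 13 days.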

For test [2], the system named is Alopecurus myosuroides (ALOMY). Described as above. The following applies: 312 h, Rate 1,000 g/ha, post-emergence spray, evaluated after 13 days (100=total damage to plant; 0=no damage to plant), read-out: Percentage damage caused to weed species, post-emergence, ALOMY. In short, it runs like this: as §1
The test system of test [3] is Echinochloa crus-galli (ECHCG). The description is as above. The following applies: 312 h, Rate 1,000 g/ha, post-emergence spray, evaluated after 13 days (100=total damage to plant; 0=no damage to plant), read-out: Percentage damage caused to weed species, post-emergence, ECHCG. In outline: as §1
For test [4], the system named is Solanum nigrum (SOLNI). The description is as above. The note with it: 312 h, Rate 1,000 g/ha, post-emergence spray, evaluated after 13 days (100=total damage to plant; 0=no damage to plant), read-out: Percentage damage caused to weed species, post-emergence, SOLNI. In short, it runs like this:
as §1

The test system of test [5] is Ipomea hederaceae (IPOHE). The description is as above. The note with it: Ipomoea hederacea, 312 h; Rate 1,000 g/ha; post-emergence spray; evaluated after 13 days (100=total damage to plant; 0=no damage to plant); read-out: Percentage damage caused to weed species, post-emergence, IPOHE. In short, it runs like this: as §1
For test [6], the system named is Setaria faberi (SETFA). Described as above. The note with it: 312 h, Rate 1,000 g/ha, post-emergence spray, evaluated after 13 days (100=total damage to plant; 0=no damage to plant), read-out: Percentage damage caused to weed species, post-emergence, SETFA. In outline: as §1
Test [7] relates to Amaranthus retoflexus (AMARE). Put plainly: Pre-emergence biological efficacy, glasshouse pot test. The note with it: Amaranthus retroflexus, 312 h; pre-emergence, rate 1,000 g/ha, evaluated after 13 days (100=total damage to plant; 0=no damage); read-out: Percentage damage caused to weed species, AMARE. In outline: (§2)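 One day after sowing in standard soil, pots were sprayed with compound in acetone/water (50:50) with 0.5% Tween 20, at 1000 or 250 g/ha. Plants grew at 24/16° C day/night, 14 h light, 65% humidity. Damage was scored after 13 days (0 = none, 100 = total).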

Test [8] has as its system Alopecurus myosuroides (ALOMY). The description is as above. The note with it: 312 h, pre-emergence, rate 1,000 g/ha, evaluated after 13 days (100=total damage to plant; 0=no damage), read-out: Percentage damage caused to weed species, ALOMY. In short, it runs like this:
as §2

Test [9] deals with Echinochloa crus-galli (ECHCG). The test is described as above. The note with it: 312 h, pre-emergence, rate 1,000 g/ha, evaluated after 13 days (100=total damage to plant; 0=no damage), read-out: Percentage damage caused to weed species, ECHCG. In outline: as §2
Test [10] relates to Solanum nigrum (SOLNI). The description is as above. The following applies: 312 h, pre-emergence, rate 1,000 g/ha, evaluated after 13 days (100=total damage to plant; 0=no damage), read-out: Percentage damage caused to weed species, SOLNI. In outline:
as §2

The test system of test [11] is Ipomea hederaceae (IPOHE). The test is described as above. The following applies: Ipomoea hederacea, 312 h; pre-emergence, rate 1,000 g/ha, evaluated after 13 days (100=total damage to plant; 0=no damage); read-out: Percentage damage caused to weed species, IPOHE. In short, it runs like this:
as §2

Test [12] has as its system Setaria faberi (SETFA). The description is as above. The note with it: 312 h, pre-emergence, rate 1,000 g/ha, evaluated after 13 days (100=total damage to plant; 0=no damage), read-out: Percentage damage caused to weed species, SETFA. In short, it runs like this:
as §2

For `CCCN(Cc1ccccc1F)c1nc(C2CC2)nc(C(=O)OC)c1Cl` [Compound 145-64, 5-Chloro-2-cyclopropyl-4-[N-(2-fluorophenylmethyl)-N-prop-1-yl-amino]-6-methoxy-carbonylpyrimidine], the pest or weed control at 1000 g/ha in test [1] came to 90%; in [2], 0%; in test [3], 30%; in test [4], 80%; in test [5], 70%; in test [6], 40%. Moreover, the pest or weed control at 1000 g/ha in test [7] is 70%; in test [8], 0%; in [9] it was 0%; in test [10] it was 70%; in test [11] it was 70%; in test [12], 0%.

With `CCCN(Cc1ccc(C)cc1)c1nc(C2CC2)nc(C(=O)OC)c1Cl` [Compound 145-73, 5-Chloro-2-cyclopropyl-6-methoxycarbonyl-4-[N-(4-methyl-phenylmethyl)-N-prop-1-yl-amino]-pyrimidine], the pest or weed control at 1000 g/ha came out at 80% in [1]; 10% in test [2]; 20% in test [3]; 50% in test [4]; 70% in [5]; 40% in test [6]. Besides, the pest or weed control at 1000 g/ha turned out to be 100% in [7]; 30% in test [8]; 30% in [9]; 70% in [10]; 20% in [11]; 20% in test [12].

As to `COC(=O)c1nc(C2CC2)nc(N(Cc2ccc(C)o2)C(C)C)c1Cl` [Compound 146-135, 5-Chloro-2-cyclopropyl-6-methoxycarbonyl-4-[N-(5-methylfuran-2-ylmethyl)-N-prop-2-yl-amino]-pyrimidine], the pest or weed control at 1000 g/ha in test [1] amounted to 100%; in [2], 40%; in test [3] it was 80%; in test [4] it was 90%; in test [5] it was 100%; in test [6] it was 90%. Also, the pest or weed control at 1000 g/ha was found to be 100% in test [7]; 40% in test [8]; 10% in [9]; 100% in test [10]; 100% in [11]; 40% in test [12].

`COC(=O)c1nc(C2CC2)nc(N(C/C=C/c2ccccc2OC)C(C)C)c1Cl` [Compound 146-255, 5-Chloro-2-cyclopropyl-4-{N-isopropyl-N-[3-(2-methoxyphenyl)-prop-2-enyl]-amino}-6-methoxycarbonyl-pyrimidine]: the pest or weed control at 1000 g/ha in test [1] was found to be 100%; in [2], 20%; in test [3] it was 30%; in test [4], 80%; in test [5], 100%; in test [6] it was 80%. The pest or weed control at 1000 g/ha in test [7] is 100%; in test [8], 10%; in [9] it was 10%; in [10], 10%; in [11] it was 70%; in test [12], 20%.

As for `CCCCN(Cc1ccccc1)c1nc(C2CC2)nc(C(=O)OC)c1Cl` [Compound 147-60, 4-(N-But-1-yl-N-phenylmethyl-amino)-5-chloro-2-cyclopropyl-6-methoxycarbonyl-pyrimidine], the pest or weed control at 1000 g/ha in [1] worked out at 70%; in test [2], 10%; in test [3] it was 10%; in test [4], 80%; in test [5] it was 80%; in [6] it was 40%. For the same compound, the pest or weed control at 1000 g/ha came to 100% in [7]; 40% in [8]; 20% in test [9]; 80% in test [10]; 30% in test [11]; 0% in test [12].

For the compound `CCC(C)N(Cc1ccccc1)c1nc(C2CC2)nc(C(=O)OC)c1Cl` (stereo not drawn) [Compound 148-60, 4-(N-But-2-yl-N-phenylmethyl-amino)-5-chloro-2-cyclopropyl-6-methoxycarbonyl-pyrimidine], the pest or weed control at 1000 g/ha in test [1] worked out at 100%; in [2], 10%; in [3], 0%; in test [4], 80%; in test [5], 90%; in test [6], 40%. Also, the pest or weed control at 1000 g/ha in [7] is 80%; in [8], 0%; in test [9], 0%; in test [10], 80%; in test [11], 30%; in test [12], 0%.

Consider `COC(=O)c1nc(C2CC2)nc(N(Cc2ccccc2)C[Si](C)(C)C)c1Cl` [Compound 150-60, 5-Chloro-2-cyclopropyl-6-methoxycarbonyl-4-(N-phenylmethyl-N-trimethylsilylmethyl-amino)pyrimidine], for which the pest or weed control at 1000 g/ha was found to be 100% in [1]; 40% in [2]; 60% in test [3]; 90% in test [4]; 90% in [5]; 70% in [6]. For the same compound, the pest or weed control at 1000 g/ha in test [7] was found to be 80%; in test [8] it was 20%; in test [9] it was 40%; in [10], 70%; in [11], 90%; in test [12], 20%.

`C=CCN(Cc1ccccc1)c1nc(C2CC2)nc(C(=O)OC)c1Cl` [Compound 151-60, 5-Chloro-2-cyclopropyl-6-methoxycarbonyl-4-(N-phenylmethyl-N-prop-2-en-1-yl-amino)-pyrimidine]: the pest or weed control at 1000 g/ha in test [1] stood at 100%; in [2], 20%; in test [3] it was 40%; in test [4], 80%; in test [5], 70%; in test [6], 80%. Moreover, the pest or weed control at 1000 g/ha in test [7] stood at 40%; in test [8], 20%; in test [9], 20%; in test [10], 10%; in test [11], 60%; in [12], 10%.
